Test results published in ChEMBL document CHEMBL1649300, “Bacterial strain-to-strain variation in pharmacodynamic index magnitude, a hitherto unconsidered factor in establishing antibiotic clinical breakpoints” (2009).
In brackets after ≈: the same amount, converted by molar mass.

How the values were obtained:
[1] = system: Staphylococcus aureus; assay: Antibacterial activity against Staphylococcus aureus SMH37312 by broth dilution method
[2] = system: Staphylococcus aureus; assay: Antibacterial activity against Staphylococcus aureus SMH36633 by broth dilution method
[3] = system: Staphylococcus aureus; assay: Antibacterial activity against Staphylococcus aureus SMH36945 by broth dilution method
[4] = system: Staphylococcus aureus; assay: Antibacterial activity against Staphylococcus aureus SMH37099 by broth dilution method
[5] = system: Staphylococcus aureus; assay: Antibacterial activity against Staphylococcus aureus SMH37276 by broth dilution method; format: functional
[6] = system: Staphylococcus aureus; assay: Antibacterial activity against Staphylococcus aureus SMH38004 by broth dilution method; format: functional
[7] = system: Staphylococcus aureus; assay: Antibacterial activity against Staphylococcus aureus SMH37390 by broth dilution method; format: functional
[8] = system: Staphylococcus aureus; assay: Antibacterial activity against Staphylococcus aureus SMH36742 by broth dilution method

COc1c(N2C[C@@H]3CCCN[C@@H]3C2)c(F)cc2c(=O)c(C(=O)O)cn(C3CC3)c12 [MOXIFLOXACIN]
MIC [1]: 0.03 µg/mL (≈ 0.0747 µM) | MIC [2]: 0.03 µg/mL (≈ 0.0747 µM) | MIC [3]: 2 µg/mL (≈ 4.98 µM) | MIC [4]: 0.03 µg/mL (≈ 0.0747 µM) | MIC [5]: 0.7 µg/mL (≈ 1.74 µM) | MIC [6]: 0.09 µg/mL (≈ 0.224 µM) | MIC [7]: 0.04 µg/mL (≈ 0.0996 µM) | MIC [8]: 1 µg/mL (≈ 2.49 µM)
